Reference: ChEMBL document CHEMBL3885881, “DrugMatrix”

Species on record: Rattus norvegicus
Experiment: DrugMatrix - Regimen: Daily Repeat
Assay type: toxicity, organism-based, Sprague-Dawley
Design: regimen Daily Repeat, gender Male, age 6-8 weeks
Details: in vivo, po, route oral GAVAGE, vehicle .5 % CMC; for ABSOLUTE BASOPHIL / ABSOLUTE EOSINOPHIL / ABSOLUTE LYMPHOCYTE / ABSOLUTE MONOCYTE / ABSOLUTE SEGMENTED NEUTROPHIL / BASOPHIL / EOSINOPHIL / ERYTHROCYTE COUNT / HEMATOCRIT / HEMOGLOBIN / LEUKOCYTE COUNT / LYMPHOCYTE / MEAN CORPUSCULAR HEMOGLOBIN / MEAN CORPUSCULAR HEMOGLOBIN CONCENTRATION / MEAN CORPUSCULAR VOLUME / MONOCYTE / NEUTROPHIL / NUCLEATED RED BLOOD CELLS / PLATELET COUNT: tissue Blood; for ALANINE AMINOTRANSFERASE / ALBUMIN / ALKALINE PHOSPHATASE / ASPARTATE AMINOTRANSFERASE / BLOOD UREA NITROGEN / CARBON DIOXIDE / CHLORIDE / CHOLESTEROL / CREATINE PHOSPHOKINASE / CREATININE / GLUCOSE / LACTATE DEHYDROGENASE / LIPASE / PHOSPHORUS / POTASSIUM / SODIUM / TOTAL BILIRUBIN / TOTAL PROTEIN / URIC ACID: tissue Plasma
[1] = 50 mg/kg, 72 h, dose level Low, time 3 day
[2] = 50 mg/kg, 120 h, dose level Low, time 5 day
[3] = 1500 mg/kg, 72 h, dose level High, time 3 day
[4] = 1500 mg/kg, 120 h, dose level High, time 5 day

In the case of CC[C@H]1OC(=O)[C@H](C)[C@@H](O[C@H]2C[C@@](C)(OC)[C@@H](O)[C@H](C)O2)[C@H](C)[C@@H](O[C@@H]2O[C@H](C)C[C@H](N(C)C)[C@H]2O)[C@](C)(O)C[C@@H](C)C(=O)[C@H](C)[C@@H](O)[C@]1(C)O [ERYTHROMYCIN], the “ABSOLUTE BASOPHIL” value [1] is reported as 0 CELLS/uL, the “ABSOLUTE EOSINOPHIL” value [1] is reported as 38.33 CELLS/uL and the “ABSOLUTE LYMPHOCYTE” value [1] is reported as 15941.33 CELLS/uL. The “ABSOLUTE MONOCYTE” value [1] was 389.67 CELLS/uL, the “ABSOLUTE SEGMENTED NEUTROPHIL” value [1] was 1297.33 CELLS/uL and the BASOPHIL [1] was 0%. For the same compound, the EOSINOPHIL [1] was 0.33%, the “ERYTHROCYTE COUNT” value [1] was 5.45 x10E6/uL and the HEMATOCRIT [1] was 34.13%. The HEMOGLOBIN [1] was 13.53 G/DL, the “LEUKOCYTE COUNT” value [1] was 17.67 x10E3/uL and the LYMPHOCYTE [1] was 89.67%. The “MEAN CORPUSCULAR HEMOGLOBIN” value [1] was 24.9 pg, the “MEAN CORPUSCULAR HEMOGLOBIN CONCENTRATION” value [1] was 39.67 G/DL and the “MEAN CORPUSCULAR VOLUME” value [1] was 62.7 fL. For the same compound, the MONOCYTE [1] was 2%, the NEUTROPHIL [1] was 8% and the “NUCLEATED RED BLOOD CELLS” value [1] was 0 /100WBC. The “PLATELET COUNT” value [1] was 1119.67 x10E3/uL, the “ALANINE AMINOTRANSFERASE” value [1] was 49.33 u/L and the ALBUMIN [1] was 4.3 G/DL. For the same compound, the “ALKALINE PHOSPHATASE” value [1] was 366 u/L, the “ASPARTATE AMINOTRANSFERASE” value [1] was 81 u/L and the “BLOOD UREA NITROGEN” value [1] was 14.67 mg/dL. For the same compound, the “CARBON DIOXIDE” value [1] was 28.33 mmol/L, the CHLORIDE [1] was 99.33 MEQ/L and the CHOLESTEROL [1] was 80 mg/dL. The “CREATINE PHOSPHOKINASE” value [1] was 238.67 u/L, the CREATININE [1] was 0.19 mg/dL and the GLUCOSE [1] was 154 mg/dL. For the same compound, the “LACTATE DEHYDROGENASE” value [1] was 152.67 u/L, the LIPASE [1] was 9 u/L and the PHOSPHORUS [1] was 12 mg/dL. The POTASSIUM [1] was 6.83 MEQ/L, the SODIUM [1] was 143.9 MEQ/L and the “TOTAL BILIRUBIN” value [1] was 0.27 mg/dL. For the same compound, the “TOTAL PROTEIN” value [1] was 6 G/DL, the “URIC ACID” value [1] was 1.57 mg/dL and the “ABSOLUTE BASOPHIL” value [2] was 0 CELLS/uL. For the same compound, the “ABSOLUTE EOSINOPHIL” value [2] was 0 CELLS/uL, the “ABSOLUTE LYMPHOCYTE” value [2] was 13393.67 CELLS/uL and the “ABSOLUTE MONOCYTE” value [2] was 52.33 CELLS/uL. For the same compound, the “ABSOLUTE SEGMENTED NEUTROPHIL” value [2] was 520.67 CELLS/uL, the BASOPHIL [2] was 0% and the EOSINOPHIL [2] was 0%. The “ERYTHROCYTE COUNT” value [2] was 4.88 x10E6/uL, the HEMATOCRIT [2] was 31.9% and the HEMOGLOBIN [2] was 12.4 G/DL. For the same compound, the “LEUKOCYTE COUNT” value [2] was 13.97 x10E3/uL, the LYMPHOCYTE [2] was 96% and the “MEAN CORPUSCULAR HEMOGLOBIN” value [2] was 25.47 pg. For the same compound, the “MEAN CORPUSCULAR HEMOGLOBIN CONCENTRATION” value [2] was 38.87 G/DL, the “MEAN CORPUSCULAR VOLUME” value [2] was 65.47 fL and the MONOCYTE [2] was 0.33%. For the same compound, the NEUTROPHIL [2] was 3.67%, the “NUCLEATED RED BLOOD CELLS” value [2] was 1 /100WBC and the “PLATELET COUNT” value [2] was 1227.33 x10E3/uL. For the same compound, the “ALANINE AMINOTRANSFERASE” value [2] was 45 u/L, the ALBUMIN [2] was 4.23 G/DL and the “ALKALINE PHOSPHATASE” value [2] was 454.67 u/L. The “ASPARTATE AMINOTRANSFERASE” value [2] was 86.33 u/L, the “BLOOD UREA NITROGEN” value [2] was 15.33 mg/dL and the “CARBON DIOXIDE” value [2] was 25.67 mmol/L. The CHLORIDE [2] was 104 MEQ/L, the CHOLESTEROL [2] was 39 mg/dL and the “CREATINE PHOSPHOKINASE” value [2] was 315.67 u/L. The CREATININE [2] was 0.19 mg/dL, the GLUCOSE [2] was 170 mg/dL and the “LACTATE DEHYDROGENASE” value [2] was 199 u/L. For the same compound, the LIPASE [2] was 7.67 u/L, the PHOSPHORUS [2] was 10.83 mg/dL and the POTASSIUM [2] was 6.66 MEQ/L. For the same compound, the SODIUM [2] was 143.43 MEQ/L, the “TOTAL BILIRUBIN” value [2] was 0.27 mg/dL and the “TOTAL PROTEIN” value [2] was 6.13 G/DL. For the same compound, the “URIC ACID” value [2] was 1.5 mg/dL, the “ABSOLUTE BASOPHIL” value [3] was 0 CELLS/uL and the “ABSOLUTE EOSINOPHIL” value [3] was 0 CELLS/uL. For the same compound, the “ABSOLUTE LYMPHOCYTE” value [3] was 15179 CELLS/uL, the “ABSOLUTE MONOCYTE” value [3] was 91.33 CELLS/uL and the “ABSOLUTE SEGMENTED NEUTROPHIL” value [3] was 1229.67 CELLS/uL. The BASOPHIL [3] was 0%, the EOSINOPHIL [3] was 0% and the “ERYTHROCYTE COUNT” value [3] was 6.59 x10E6/uL. The HEMATOCRIT [3] was 42.83%, the HEMOGLOBIN [3] was 16.43 G/DL and the “LEUKOCYTE COUNT” value [3] was 16.5 x10E3/uL. For the same compound, the LYMPHOCYTE [3] was 91%, the “MEAN CORPUSCULAR HEMOGLOBIN” value [3] was 24.97 pg and the “MEAN CORPUSCULAR HEMOGLOBIN CONCENTRATION” value [3] was 38.43 G/DL. For the same compound, the “MEAN CORPUSCULAR VOLUME” value [3] was 64.9 fL, the MONOCYTE [3] was 0.67% and the NEUTROPHIL [3] was 8.33%. The “NUCLEATED RED BLOOD CELLS” value [3] was 0 /100WBC, the “PLATELET COUNT” value [3] was 1070 x10E3/uL and the “ALANINE AMINOTRANSFERASE” value [3] was 65.33 u/L. The ALBUMIN [3] was 4.03 G/DL, the “ALKALINE PHOSPHATASE” value [3] was 390 u/L and the “ASPARTATE AMINOTRANSFERASE” value [3] was 86.33 u/L. The “BLOOD UREA NITROGEN” value [3] was 9.33 mg/dL, the “CARBON DIOXIDE” value [3] was 34 mmol/L and the CHLORIDE [3] was 100 MEQ/L. For the same compound, the CHOLESTEROL [3] was 106.33 mg/dL, the “CREATINE PHOSPHOKINASE” value [3] was 328 u/L and the CREATININE [3] was 0.16 mg/dL. For the same compound, the GLUCOSE [3] was 137.67 mg/dL, the “LACTATE DEHYDROGENASE” value [3] was 131 u/L and the LIPASE [3] was 9 u/L. The PHOSPHORUS [3] was 12.3 mg/dL, the POTASSIUM [3] was 6.72 MEQ/L and the SODIUM [3] was 144.47 MEQ/L. The “TOTAL BILIRUBIN” value [3] was 0.1 mg/dL, the “TOTAL PROTEIN” value [3] was 6.17 G/DL and the “URIC ACID” value [3] was 2.13 mg/dL. For the same compound, the “ABSOLUTE BASOPHIL” value [4] was 0 CELLS/uL, the “ABSOLUTE EOSINOPHIL” value [4] was 0 CELLS/uL and the “ABSOLUTE LYMPHOCYTE” value [4] was 14587.33 CELLS/uL. The “ABSOLUTE MONOCYTE” value [4] was 796.67 CELLS/uL, the “ABSOLUTE SEGMENTED NEUTROPHIL” value [4] was 1949.33 CELLS/uL and the BASOPHIL [4] was 0%. For the same compound, the EOSINOPHIL [4] was 0%, the “ERYTHROCYTE COUNT” value [4] was 6.53 x10E6/uL and the HEMATOCRIT [4] was 39.67%. The HEMOGLOBIN [4] was 15.9 G/DL, the “LEUKOCYTE COUNT” value [4] was 17.33 x10E3/uL and the LYMPHOCYTE [4] was 84.67%. The “MEAN CORPUSCULAR HEMOGLOBIN” value [4] was 24.4 pg, the “MEAN CORPUSCULAR HEMOGLOBIN CONCENTRATION” value [4] was 40.13 G/DL and the “MEAN CORPUSCULAR VOLUME” value [4] was 60.83 fL. The MONOCYTE [4] was 4.33%, the NEUTROPHIL [4] was 11% and the “NUCLEATED RED BLOOD CELLS” value [4] was 0 /100WBC. The “PLATELET COUNT” value [4] was 1382.33 x10E3/uL, the “ALANINE AMINOTRANSFERASE” value [4] was 67 u/L and the ALBUMIN [4] was 3.7 G/DL. The “ALKALINE PHOSPHATASE” value [4] was 311.67 u/L, the “ASPARTATE AMINOTRANSFERASE” value [4] was 107.33 u/L and the “BLOOD UREA NITROGEN” value [4] was 13.67 mg/dL. The “CARBON DIOXIDE” value [4] was 29 mmol/L, the CHLORIDE [4] was 100 MEQ/L and the CHOLESTEROL [4] was 107.67 mg/dL. The “CREATINE PHOSPHOKINASE” value [4] was 532.67 u/L, the CREATININE [4] was 0.21 mg/dL and the GLUCOSE [4] was 130.33 mg/dL. The “LACTATE DEHYDROGENASE” value [4] was 259.67 u/L, the LIPASE [4] was 9.33 u/L and the PHOSPHORUS [4] was 9.97 mg/dL. The POTASSIUM [4] was 9.14 MEQ/L, the SODIUM [4] was 141.8 MEQ/L and the “TOTAL BILIRUBIN” value [4] was 0.1 mg/dL. For the same compound, the “TOTAL PROTEIN” value [4] was 6.13 G/DL and the “URIC ACID” value [4] was 1.27 mg/dL.
